Measured values published in patent publication US20140011853A1, “SUBSTITUTED 3-(BIPHENYL-3-YL)-8,8-DIFLUORO-4-HYDROXY-1-AZASPIRO[4.5]DEC-3-EN-2-ONES FOR THERAPY” (BAYER INTELLECTUAL PROPERTY GMBH, priority 2011, published 2014).
Several values for one entry are separate records, joined by “and”; a condition that tells them apart may be missing. Identical values can stand only once. Like-named read-outs stand apart in the source and are kept apart here.

Key:
[1] = test system: Phaedon cochleariae; test: Phaedon test (PHAECO spray treatment); conditions: for effect (kill of beetle larvae): 500 g/ha, after 7 days
[2] = test system: Spodoptera frugiperda; test: Spodoptera frugiperda test (SPODFR spray treatment); type: in vivo; conditions: 500 g/ha, after 7 days
[3] = test system: Myzus persicae; test: Myzus test (MYZUPE spray treatment); type: in vivo; conditions: for pest or weed control at 500 g/ha: read-out: effect (kill of aphids)
Source text: Disks of Chinese cabbage (Brassica pekinensis) infested by all stages of the green peach aphid (Myzus persicae) are sprayed with an active compound formulation of the desired concentration.

[4] = test system: Boophilus microplus; test: Boophilus microplus test (BOOPMI injection); type: in vivo; conditions: 20 μg/animal, after 7 days
Method: (§1) • Solvent: dimethyl sulphoxide
The solution of active compound is injected into the abdomen (Boophilus microplus), and the animals are transferred into dishes and kept in a climatized room. The activity is assessed by […] of fertile eggs.

[5] = test system: Lucilia cuprina; test: Lucilia cuprina test (LUCICU); type: in vivo; conditions: 100 ppm, after 2 days
Source text: as §1
Vessels containing horse meat treated with the active compound preparation of the desired concentration are populated with about 20 Lucilia cuprina larvae.

[6] = test system: Meloidogyne incognita; test: Meloidogyne incognita test (MELGIN); type: in vivo; conditions: 20 ppm, after 14 days
Method: • Solvent: 125 parts by weight of acetone
Containers are filled with sand, solution of active compound, Meloidogyne incognita egg/larvae suspension and lettuce seeds. The lettuce seeds germinate and the plants develop. On the roots, galls are formed. After 14 days, the nematicidal effect in % is determined by the formation of galls. 100% means that no galls have been found; 0% means that the number of galls on the treated plants corresponds to the untreated control.

[7] = test system: Tetranychus urticae; test: Tetranychus test, OP-resistant (TETRUR spray treatment); type: in vivo; conditions: for pest or weed control at 100 g/ha: read-out: effect (kill of spider mites)
[8] = reference substances with known distribution coefficients; cited from earlier work
[9] = test system: human ACC1; test: Human ACC1 enzyme assay (ADP-Glo); type: biochemical; conditions: for Ratio of IC50s ACC2/ACC1 (respective measurement): pairwise, same dilution series
[10] = biological target: T1, human ACC1 (Homo sapiens, UniProt Q13085); test: Human ACC1 enzyme assay (ADP-Glo); type: biochemical
T1 construct: FLAG (C); made in house; host or cells: baculovirus-infected insect cells (Hi5)

[11] = test system: MCF7; test: Tumour cell proliferation, CellTiter-Glo, 96-hour incubation, MCF7; type: cell-based
Method: (§2) In accordance with the invention, the substances were tested in cell-based assays for the ability of the substances of inhibiting tumour cell proliferation after a 96-hour incubation with the substance. Cell viability was tested using the CellTiter-Glo® luminescent cell viability assay (Promega). The cells were sown at a density of 2000-5000 cells/well (depending on the cell line) in 100 μl growth medium on 96-well microtiter plates. For each cell line examined, cells were sown on a separate plate to determine the luminescence at t=0 hours and t=96 hours. After overnight incubation at 37° C., the luminescence values for the t=0 samples were determined. The dose plates for the t=96 hours points in time were treated with substances diluted with growth medium. The cells were then incubated at 37° C. for 96 hours, and the luminescence values for the t=96 hours samples were then determined. For data analysis, the t=0 values were subtracted from the t=96 hours values for treated and untreated samples. The differences in luminescence in percent between substance-treated samples and control values were used to determine the growth inhibition in percent.
(§3) The substances were tested in the following cell lines which represent the stated indications in an exemplary manner: […]

[12] = biological target: human ACC2 (Homo sapiens, UniProt O00763); test: Human ACC2 enzyme assay (ADP-Glo); conditions: ACC 2 IC50, individual measurements
[13] = test system: KM12; test: Tumour cell proliferation, CellTiter-Glo, 96-hour incubation, KM12; type: cell-based
Method: as §2, §3

[14] = test system: H460; test: Tumour cell proliferation, CellTiter-Glo, 96-hour incubation, H460; type: cell-based
Method: as §2, §3

[15] = test system: PC3; test: Tumour cell proliferation, CellTiter-Glo, 96-hour incubation, PC3; type: cell-based
Method: as §2, §3

[16] = Octanol/water distribution coefficient (logP/D), isocratic HPLC method; type: physicochemical; conditions: pH 7.4
Source text: Assay for Determining the Octanol/Water Distribution Coefficient (logP/D):
The distribution coefficient octanol/water P or D is a key parameter for estimating membrane penetration and permeability. It is defined as the ratio of the equilibrium concentrations of a substance in the two-phase system octanol/water.
It is usually stated in form of the decadic logarithm (logP or logD).
logP describes the distribution behaviour of a substance exclusively present in its neutral form. logD describes the distribution behaviour of a substance at a certain pH; depending on the ionization constant pKa of the substance, some of the substance may be present in ionic form, and some in neutral form.
The logP/D of the active compounds was determined using an isocratic HPLC method (HPLC=high performance liquid chromatography) (literature: OECD Guideline for Testing of Chemicals No. 117). The method is based on the correlation of the HPLC retention time of the test substance to that of reference substances with known distribution coefficients.
The test substance was employed as a 10 mM solution in DMSO (DMSO=dimethyl sulphoxide). 10 μl of this solution were made up to 100 μl with a methanol/water mixture in a ratio of 7+3.
The nine reference substances were dissolved individually in methanol. 100 μl each of the stock solutions were added to an HPLC vial and mixed with 300 μl of water.
A formamide solution was used to determine the hold-up time. To this end, 7 mg of formamide were dissolved in 10 ml of methanol. 100 μl of this stock solution were mixed with 500 μl of methanol and 200 μl of water.
All solutions were chromatographed using a flow rate of 1.00 ml/min.
Injection Protocol: formamide, references, test substance 1, test substance 2, . . . , formamide, references.
Evaluation of the retention times was carried out in a diode array detector (DAD) at 200-400 nm Via the molecular mass, the identity of the test substance was checked using the downstream mass spectrometer.
The HPLC run was evaluated using the Waters software Masslynx 4.1.
The logP/D values were calculated using the software “POW Determination” (proprietary development).

[17] = Plasma protein binding by equilibrium dialysis, mouse; type: in vitro ADME; conditions: read-out: fu (mouse)
Method: (§4) The binding of test substances to plasma proteins is determined by equilibrium dialysis by means of the Ht-dialysis apparatus (96-well) made of Teflon and a semipermeable membrane (regenerated cellulose, MWCO 12-14K). This separates 150 μl each of a plasma side and a buffer side (50 mM phosphate buffer). The test substance is added in 2 concentrations (usually 3 and 0.3 μM) to the plasma side and binds to plasma proteins. The unbound fraction of the test substance passes through the membrane and is distributed on either side until equilibrium is established (after approx. 6-8 h at 37° C.). The substance concentration on the buffer side and the plasma side is determined by LC-MS analysis. For this, both sides are brought by dilution with buffer or plasma to the same matrix (10% plasma) and then precipitated with methanol. The free (unbound) fraction (fu) is calculated from the quotient of the buffer and plasma concentration. Stability tests and recovery tests are run concurrently as controls. In addition, the substance in buffer is dialysed against buffer, to check the nonspecific binding to apparatus and membrane and establishment of equilibrium. Because during incubation the osmotic pressure of the plasma proteins leads to dilution of the plasma (volume shift), this possible error is determined by weighing blank plasma samples and is included in the calculation of fu. Establishment of equilibrium and plasma stability should have a value not lower than 80% and the recovery should be at least 30%. A free fraction of <1% is regarded as high, between 1 and 10% as moderate and >10% as low plasma protein binding.

[18] = Plasma protein binding by equilibrium dialysis, human; type: in vitro ADME; conditions: read-out: fu (human)
Method: as §4

[19] = biological target: human serum albumin (HSA) (Homo sapiens, UniProt P02768); test: Protein binding to human serum albumin (HSA-Transil)
[20] = Plasma protein binding by equilibrium dialysis, rat; type: in vitro ADME; conditions: read-out: fu (rat)
Method: as §4

[21] = Membrane affinity logMA (MA-Transil); type: physicochemical; conditions: buffer pH 7.4
[22] = ACC 1 IC50, individual measurements
[23] = Homo sapiens, MCF7, 96 h, read-out: MCF7 IC50
[24] = individual measurements, read-out: ACC 1 IC50
[25] = Homo sapiens, MCF7, 96 h; read-out: MCF7 IC50

Sequence of human ACC2 (O00763 27-2458 limits assumed): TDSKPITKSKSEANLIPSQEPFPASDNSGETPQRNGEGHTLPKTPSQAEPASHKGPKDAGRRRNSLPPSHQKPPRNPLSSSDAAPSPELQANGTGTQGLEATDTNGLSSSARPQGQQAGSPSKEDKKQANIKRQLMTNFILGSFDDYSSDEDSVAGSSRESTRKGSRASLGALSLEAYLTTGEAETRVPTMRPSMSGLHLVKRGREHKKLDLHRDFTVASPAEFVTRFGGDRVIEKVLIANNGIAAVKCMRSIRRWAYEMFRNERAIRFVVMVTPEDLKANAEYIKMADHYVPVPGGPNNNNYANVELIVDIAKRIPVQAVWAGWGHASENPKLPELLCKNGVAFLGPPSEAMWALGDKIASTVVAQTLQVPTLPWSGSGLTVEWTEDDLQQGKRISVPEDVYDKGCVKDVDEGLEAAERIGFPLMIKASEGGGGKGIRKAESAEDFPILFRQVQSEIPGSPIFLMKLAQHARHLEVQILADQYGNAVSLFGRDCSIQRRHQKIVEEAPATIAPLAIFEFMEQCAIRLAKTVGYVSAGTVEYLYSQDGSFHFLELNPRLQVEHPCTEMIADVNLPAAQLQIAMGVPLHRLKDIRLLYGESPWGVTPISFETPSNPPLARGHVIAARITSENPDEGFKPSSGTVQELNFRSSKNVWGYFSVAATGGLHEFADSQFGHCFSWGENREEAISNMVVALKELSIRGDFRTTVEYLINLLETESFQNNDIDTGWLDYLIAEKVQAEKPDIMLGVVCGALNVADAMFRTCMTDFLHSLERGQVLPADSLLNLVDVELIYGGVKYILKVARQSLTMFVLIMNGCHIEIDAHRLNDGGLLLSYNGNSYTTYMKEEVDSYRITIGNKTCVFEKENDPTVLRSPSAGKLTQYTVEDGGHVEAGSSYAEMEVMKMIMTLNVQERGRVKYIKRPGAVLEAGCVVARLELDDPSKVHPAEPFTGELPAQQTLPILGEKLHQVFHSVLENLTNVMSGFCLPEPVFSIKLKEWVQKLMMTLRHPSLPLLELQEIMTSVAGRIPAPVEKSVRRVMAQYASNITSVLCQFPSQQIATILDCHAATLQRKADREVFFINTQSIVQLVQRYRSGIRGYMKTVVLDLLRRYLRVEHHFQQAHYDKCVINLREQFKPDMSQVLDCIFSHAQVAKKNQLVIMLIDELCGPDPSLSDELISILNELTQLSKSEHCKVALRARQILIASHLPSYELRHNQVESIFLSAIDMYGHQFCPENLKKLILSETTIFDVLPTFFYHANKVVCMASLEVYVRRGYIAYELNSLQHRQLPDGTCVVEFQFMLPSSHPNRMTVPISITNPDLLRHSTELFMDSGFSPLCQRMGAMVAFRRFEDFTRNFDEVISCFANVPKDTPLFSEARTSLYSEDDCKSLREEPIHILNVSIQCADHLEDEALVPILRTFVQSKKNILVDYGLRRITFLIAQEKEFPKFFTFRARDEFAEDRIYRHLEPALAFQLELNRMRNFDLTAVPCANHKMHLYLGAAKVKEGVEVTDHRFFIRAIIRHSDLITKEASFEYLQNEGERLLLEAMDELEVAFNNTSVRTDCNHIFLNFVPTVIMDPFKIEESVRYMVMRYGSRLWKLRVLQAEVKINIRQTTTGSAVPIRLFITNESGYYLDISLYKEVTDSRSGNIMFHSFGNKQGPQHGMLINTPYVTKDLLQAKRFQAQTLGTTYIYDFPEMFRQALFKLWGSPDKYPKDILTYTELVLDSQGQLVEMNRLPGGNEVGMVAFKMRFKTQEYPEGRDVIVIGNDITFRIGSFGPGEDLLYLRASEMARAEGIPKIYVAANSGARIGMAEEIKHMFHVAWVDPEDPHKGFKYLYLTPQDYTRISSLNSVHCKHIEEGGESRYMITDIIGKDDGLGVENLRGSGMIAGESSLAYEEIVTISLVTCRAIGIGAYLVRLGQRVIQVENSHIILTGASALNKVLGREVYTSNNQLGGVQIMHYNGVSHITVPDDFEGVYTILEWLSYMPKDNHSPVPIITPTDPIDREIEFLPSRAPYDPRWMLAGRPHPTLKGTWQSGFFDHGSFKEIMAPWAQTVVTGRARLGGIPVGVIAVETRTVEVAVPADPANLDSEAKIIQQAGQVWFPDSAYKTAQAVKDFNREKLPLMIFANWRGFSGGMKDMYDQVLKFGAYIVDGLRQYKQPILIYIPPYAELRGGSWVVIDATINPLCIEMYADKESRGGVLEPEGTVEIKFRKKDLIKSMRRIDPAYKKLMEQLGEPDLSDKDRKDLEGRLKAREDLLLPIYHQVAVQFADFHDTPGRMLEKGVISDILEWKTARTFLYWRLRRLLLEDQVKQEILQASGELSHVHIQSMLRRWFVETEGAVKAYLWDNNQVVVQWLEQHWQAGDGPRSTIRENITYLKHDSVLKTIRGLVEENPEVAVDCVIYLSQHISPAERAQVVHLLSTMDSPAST
Sequence of human serum albumin (HSA) (P02768 25-609): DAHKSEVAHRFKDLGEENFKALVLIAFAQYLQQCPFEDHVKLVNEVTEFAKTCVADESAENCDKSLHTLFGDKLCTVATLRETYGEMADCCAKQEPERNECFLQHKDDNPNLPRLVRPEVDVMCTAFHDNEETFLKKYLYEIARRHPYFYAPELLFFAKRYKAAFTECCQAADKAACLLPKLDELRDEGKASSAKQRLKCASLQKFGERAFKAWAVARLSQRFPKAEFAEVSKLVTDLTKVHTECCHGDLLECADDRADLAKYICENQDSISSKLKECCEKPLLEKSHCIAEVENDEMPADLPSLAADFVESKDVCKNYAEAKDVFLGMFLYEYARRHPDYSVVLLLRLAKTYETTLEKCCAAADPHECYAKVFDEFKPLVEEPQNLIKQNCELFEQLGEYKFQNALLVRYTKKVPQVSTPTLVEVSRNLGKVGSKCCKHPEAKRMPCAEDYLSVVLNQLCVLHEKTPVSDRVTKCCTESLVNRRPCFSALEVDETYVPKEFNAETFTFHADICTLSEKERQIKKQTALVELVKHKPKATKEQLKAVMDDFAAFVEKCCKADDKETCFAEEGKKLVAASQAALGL

Row | Compound | effect (kill of beetle larvae) [1] | nematicidal effect (formation of galls) [6] | Selectivity ACC1 vs. ACC2 (mean of the individual measurements ± standard deviation) [9] | Ratio of IC50s ACC2/ACC1 (respective measurement) [9] | IC50 [10, 22] | IC50 [11, 23] | melting point | IC50 [12] | IC50 [10, 24] | IC50 [11, 25] | chromatographic logP [16] | fraction unbound [17] | fraction unbound [18] | Kd [19] | fraction unbound [20] | logMA [21] | other results
1 | Cc1ccc(-c2ccc(F)cc2)c(C)c1C1=C(O)C2(CCC(F)(F)CC2)NC1=O [Example I-1-a-2] | 100% | 100% |  |  |  |  |  |  |  |  |  |  |  |  |  |  | effect (kill of caterpillars) [2]: 100%; effect (kill of aphids) ([3]; 500 g/ha, after 6 days): 100%; effect (no fertile eggs) [4]: 80%; kill of larvae [5]: 100%; effect (kill of spider mites) ([7]; 500 g/ha, after 6 days): 100%
2 | Clc1ccc(C(c2ccc(Cl)cc2)C(Cl)(Cl)Cl)cc1 [DDT] |  |  |  |  |  |  |  |  |  |  |  |  |  |  |  |  | log P [8]: 6.2
3 | Cc1ccc(-c2ccc(Cl)cc2)c(C)c1C1=C(O)C2(CCC(F)(F)CC2)NC1=O [Example 1-5, 3-(4′-Chloro-2,4-dimethylbiphenyl-3-yl)-8,8-difluoro-4-hydroxy-1-azaspiro[4.5]dec-3-en-2-one] |  | 100% | 12.4 | 12.4 | 218 nM | 205 nM | 141 to 145 °C | 2700 nM |  |  |  |  |  |  |  |  | IC50 ([13]; Homo sapiens, KM12, 96 h, read-out: KM12 IC50): 668 nM; IC50 ([14]; Homo sapiens, NCI-H460, 96 h, read-out: H460 IC50): 769 nM; IC50 ([15]; Homo sapiens, PC-3, 96 h, read-out: PC3 IC50): 506 nM; pest or weed control at 500 g/ha ([3]; Myzus persicae, 144 h): 100%; pest or weed control at 100 g/ha ([7]; Tetranychus urticae, 144 h): 90%
4 | Cc1ccc(-c2ccc(F)c(F)c2)cc1C1=C(O)C2(CCC(F)(F)CC2)NC1=O [Example 1-6, 3-(3′,4′-Difluoro-4-methylbiphenyl-3-yl)-8,8-difluoro-4-hydroxy-1-azaspiro[4.5]dec-3-en-2-one] | 100% |  | 51.9 ± 22.8 |  |  |  | 223 °C | 3870 nM and 8030 nM | 133 nM and 107 nM | 45 nM |  |  |  |  |  |  | IC50 ([13]; Homo sapiens, KM12, 96 h; read-out: KM12 IC50): 257 nM; inhibition at 20 g/ha ([1]; Phaedon cochleariae, 168 h, read-out: % activity PHAECO): 67%; IC50 ([14]; Homo sapiens, NCI-H460, 96 h; read-out: H460 IC50): 371 nM; IC50 ([15]; Homo sapiens, PC-3, 96 h; read-out: PC3 IC50): 158 nM; inhibition at 20 g/ha ([3]; Myzus persicae, 144 h, 20 g/ha, 6 d, read-out: % activity MYZUPE): 100%; pest or weed control at 500 g/ha ([3]; Myzus persicae, 144 h, 500 g/ha, after 6 days): 100%; inhibition at 20 g/ha ([7]; Tetranychus urticae, 144 h, 20 g/ha, 6 d, read-out: % activity TETRUR): 90%; pest or weed control at 100 g/ha ([7]; Tetranychus urticae, 144 h, 100 g/ha, after 6 days): 90%
5 | Cc1ccc(-c2ccc(Cl)cc2)cc1C1=C(O)C2(CCCCC2)NC1=O [V.2-b, 3-(4′-Chloro-4-methylbiphenyl-3-yl)-4-hydroxy-1-azaspiro[4.5]dec-3-en-2-one, reference compound] |  |  | 12.8 ± 1.3 | 11.5 and 14.1 | 208 nM and 196 nM | 41 nM |  | 2400 nM and 2760 nM |  |  | 2.77 | 0.0281 | 0.0036 | 3220 nM | 0.0071 | 2.05 (1.9-2.2, n = 2) | 
6 | Cc1ccc(-c2ccc(Cl)c(F)c2)cc1C1=C(O)C2(CCCCC2)NC1=O [V.1-b, 3-(4′-Chloro-3′-fluoro-4-methylbiphenyl-3-yl)-4-hydroxy-1-azaspiro[4.5]dec-3-en-2-one, reference compound] |  |  | 46.9 | 45.9 |  |  |  | 1950 nM | 43 nM | 22 nM | 2.8 | 0.0746 | 0.004 | 3500 nM | 0.0612 | 2.55 (2.4-2.9, n = 4) | 
